One may read the Kd as a measure of binding affinity in units of concentration. One may read the inhibition as the percentage by which the read-out fell short of the control. One may read the Ki as a dissociation constant, usually derived from enzyme kinetics or from competition with a known ligand.

Series [1] addresses T1, VEGF (Homo sapiens, UniProt P15692).
T1 sequence (P15692 207-395): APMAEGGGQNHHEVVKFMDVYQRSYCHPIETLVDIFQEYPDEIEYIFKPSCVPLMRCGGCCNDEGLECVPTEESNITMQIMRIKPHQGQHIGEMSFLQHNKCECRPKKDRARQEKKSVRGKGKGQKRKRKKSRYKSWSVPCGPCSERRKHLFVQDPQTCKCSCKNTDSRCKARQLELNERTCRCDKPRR
The series can be described thus: Growth factor binding assay (SPR solution affinity), VEGF. Particulars: HBS-EP buffer, 25° C. The gist of the method:
(§1)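 Kd measured by SPR solution affinity: fixed growth factor with varying ligand competing for heparin-coated sensorchip, 25 °C. Buffer HBS-EP pH 7.4 (150 mM NaCl) for FGF-1 and VEGF; FGF-2 with 0.3 M NaCl. Duplicate values averaged.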

Series [2] has as its target FGF-2 (Homo sapiens, UniProt P09038). Description: Growth factor binding assay (SPR solution affinity), FGF-2. The settings on record: SPR, HBS-EP buffer containing 0.3 M NaCl, 25° C.; read-out: Kd FGF-2. The gist of the method:
as §1

Series [3] concerns pooled normal human plasma. The series can be described thus: Anticoagulant activity, APTT. The settings on record: 0.1 mg/mL in normal pooled human plasma. On the procedure: APTT measurements were performed on a STAGO STA-Compact Coagulation Analyser using standard protocols according to the manufacturer's instructions. Unfractionated heparin (UFH) was used as a control.
Series [4] concerns normal pooled human plasma. Description: Anticoagulant activity, Heptest. Particulars: 0.1 mg/mL in normal pooled human plasma.
The format of series [5] is in vivo, Sprague-Dawley rats. The procedure: Adult male Sprague-Dawley (SD) rats (approx 300 g) were used for the experiment. Femoral artery cannulae was implanted and exteriorised following isoflurane anaesthesia. Jugular vein artery cannulae was implanted and exteriorized. […]. Blood samples (˜325 μL) were collected into sample tubes containing the anticoagulant sodium citrate from femoral artery catheter pre-dose and at 5, 20 minutes and 2, 5, 8, 12, 24, and 48 hours post-dose, and kept at reduced temperature (approx 4° C.) until centrifuged. Blood samples were centrifuged, plasma separated and 50 μL aliquot of the plasma transferred to a scintillation vial for counting. At the end of the experimental period animals were euthanased via a lethal overdose of pentobarbital. The level of radioactivity in the plasma was measured following mixing of samples with Packard Ultima Gold liquid scintillation counting cocktail. Counting was conducted on a Beckman liquid scintillation counter (LS6500) or Packard TriCarb liquid scintillation counter for 10 minutes per sample. Results (DPM, calculated from an in-built quench curve in the counter) were corrected for background prior to any calculations. The pharmacokinetic parameters were calculated using PK Solutions 2.0 software (Summit Research Services, Ohio, U.S.A.) and are summarised in Table 11 below.

Series [6] has as its target FGF-1 (Homo sapiens, UniProt P05230). The series can be described thus: Growth factor binding assay (SPR solution affinity), FGF-1. Particulars: SPR, HBS-EP buffer, 25° C.; read-out: Kd FGF-1.
The test system of series [7] is HUVECs. The series can be described thus: Matrigel microtubule formation assay. It is filed as cell-based, human. Particulars: Homo sapiens, HUVEC, read-out: Microtubule Formation % inhibition at 10 μM; 10 μM, relative to controls. The procedure:
Medium for the proliferation studies was prepared using EGM with 2% FBS and gentamicin only. In a later study, complete EGM was used for the VEGF groups in an attempt to enhance the proliferative index of VEGF-stimulated groups. For the tube formation assay, complete medium was used with only heparin omitted. Compounds under investigation were weighed out from powder stocks and diluted in PBS to 10 mM stock solutions and stored at −80° C. For experiments, compounds were subsequently diluted in EBM-2 medium (supplemented with 2% FBS and gentamicin) to various working concentration as required.
The tube formation assay was performed essentially as described by Malinda et al., with modifications.^41 HUVECs in the fourth or fifth passage at 70-80% confluence were harvested and resuspended in Lonza endothelial growth medium (EGM2) containing all supplements as directed by manufacturer, except heparin, at a cell density of 4×10^5 cells per mL. For each set of triplicate wells, 200 μL of cells (4×10^5/mL) were treated with an equal volume of compound to obtain final concentrations of 10, 50 or 100 μM (thus ensuring 1×300 μL are available for each condition). A 100 μL aliquot of cells was then plated onto 96-well plates pre-coated with growth factor reduced Matrigel™ (50 μL for 30 min followed by a further 30 μL for 1 h) and incubated for 18-22 h. Tube formation was examined by phase-contrast microscopy and images were collected using an Olympus C5050 digital camera. Tube formation inhibition was quantitated manually from images by recording the total number of nodes connecting 3 or more tubules. Untreated HUVECs were used as a control for normal cell growth and tube formation in Matrigel.

Series [8] concerns rat aortic tissue. Description: Ex vivo angiogenic sprout assay (rat aortic angiogenesis assay). It is filed as cell-based, Sprague Dawley rats. Particulars: Rattus norvegicus. On the procedure: Explants from rat aortas were prepared by a modification of protocols previously described^42-54. In this model, the rat aortic endothelium exposed to a three dimensional matrix of ECM-derived proteins (Matrigel™), switches to a microvascular phenotype, generating branching networks of microvessels.
Briefly, thoracic aortas were excised from 2- to 4-month old Sprague Dawley rats and trimmed of remaining fat and connective tissue. Great care was taken at every stage to reduce physical damage of the aorta. Tissue was transferred to complete EBM-2 media (Cambrex) containing 2% FCS and all Singlequots™ (Cambrex) reagents except for heparin. Meanwhile, Matrigel™ (BD Biosciences) was allowed to cool on ice and once in a liquid form, 180 μL was pipetted into 48-well tissue culture plates (Nunc). The plates were incubated at 37° C. for 30 min to allow Matrigel™ to solidify.
Aortas were prepared by cutting 1 mm ring sections and then being bisected. Aortic segments were then carefully placed on top on the Matrigel™ in the centre of each well and once orientated as required, 60 μL of extra Matrigel™ was placed on top and the plate was returned to the incubator for a further 20 min. Each well was then supplemented with 1.0 mL media in the absence (control) or presence of test compounds usually at two concentrations within the range of 1-50 μM, depending on the particular compound/experiment. Cultures were replenished as appropriate every 48 h and scoring of microvessels was carried out at various timepoints up to 8-10 days. The extent of microvessel sprouting was determined by employing a scoring system from 0-5, where 0=no microvessels to 5=diffuse angiogenesis as previously described^45. Sprouting vessels were photographed using the 4× objective with an Olympus C-7070 camera and an adaptor for the eyepiece.
In some instances, to determine the potential toxicity of compounds in this assay, the viability of the tissue was assessed by withdrawing the compound/media from the culture on day 6 or 7 and adding complete media with VEGF (typically 10 ng/mL) for up to an additional 7 days. In the absence of toxicity, the viable tissue should sprout microvessels in response to the exogenous growth factor.
The inhibitory effect of compounds of the present invention on angiogenesis was assayed using the angiogenic sprout/microvessel formation (rat aortic) assay described above. Embedding of the rat aortic tissue in Matrigel™ in the absence of any inhibitor (control) yielded extensive angiogenic sprouting (as a score of 5 indicates diffuse angiogenesis) as illustrated by FIG. 1.

Series [9] has as its target T2, recombinant human heparanase (Homo sapiens, UniProt Q9Y251).
T2 sequence (Q9Y251 158-543 limits assumed): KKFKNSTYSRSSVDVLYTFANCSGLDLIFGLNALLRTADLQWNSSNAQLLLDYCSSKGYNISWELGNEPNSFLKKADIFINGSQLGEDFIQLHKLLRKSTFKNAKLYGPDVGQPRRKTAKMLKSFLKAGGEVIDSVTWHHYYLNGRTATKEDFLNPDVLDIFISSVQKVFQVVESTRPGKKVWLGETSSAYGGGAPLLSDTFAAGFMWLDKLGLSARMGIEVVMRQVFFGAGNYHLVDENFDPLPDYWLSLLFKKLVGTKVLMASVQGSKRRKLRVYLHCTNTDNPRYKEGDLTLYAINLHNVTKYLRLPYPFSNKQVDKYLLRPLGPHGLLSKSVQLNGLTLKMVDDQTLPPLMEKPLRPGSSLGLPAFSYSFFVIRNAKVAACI
T2 sequence (Q9Y251 36-109 limits assumed): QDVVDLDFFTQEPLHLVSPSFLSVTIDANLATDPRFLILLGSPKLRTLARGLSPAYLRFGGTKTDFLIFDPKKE
The series can be described thus: Heparanase inhibition assay (fondaparinux cleavage, WST-1). Particulars: read-out: Ki Heparanase; IC50 converted into Ki; fondaparinux 100 μM, pH 5.0.

Read-outs that look alike come from different tables or passages of the source.

Sequence of FGF-2 (P09038 143-288, species assumed): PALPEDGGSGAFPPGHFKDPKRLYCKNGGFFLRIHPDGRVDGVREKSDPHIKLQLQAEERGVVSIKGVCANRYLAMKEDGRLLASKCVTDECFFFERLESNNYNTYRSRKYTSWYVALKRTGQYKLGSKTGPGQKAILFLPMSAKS
Sequence of FGF-1 (P05230 whole entry, species assumed): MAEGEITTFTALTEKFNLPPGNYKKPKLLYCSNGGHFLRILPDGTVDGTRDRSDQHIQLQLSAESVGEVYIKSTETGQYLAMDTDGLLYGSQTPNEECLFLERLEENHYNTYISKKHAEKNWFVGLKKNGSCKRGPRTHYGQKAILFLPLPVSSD

Take `CC(C)CCCC(C)C1CCC2C3CCC4CC(OC5OC(COS(=O)(=O)O)C(OC6OC(COS(=O)(=O)O)C(OC7OC(COS(=O)(=O)O)C(OC8OC(COS(=O)(=O)O)C(OS(=O)(=O)O)C(OS(=O)(=O)O)C8OS(=O)(=O)O)C(OS(=O)(=O)O)C7OS(=O)(=O)O)C(OS(=O)(=O)O)C6OS(=O)(=O)O)C(OS(=O)(=O)O)C5OS(=O)(=O)O)CCC4(C)C3CCC12C` [Compound 65, 3β-Cholestanyl 2,3,4,6-tetra-O-sodium sulfonato-α-D-glucopyranosyl-(1→4)-2,3,6-tri-O-sodium sulfonato-α-D-glucopyranosyl-(1→4)-2,3,6-tri-O-sodium sulfonato-α-D-glucopyranosyl-(1→4)-2,3,6-tri-O-sodium sulfonato-β-D-glucopyranoside]: the Kd worked out at 28.9 ± 2.3 nM in [1] and 390 ± 80 nM in [2]. Moreover, the APTT in series [3] came to 71.9 s. In [4], this compound displayed a Heptest of 28.6 s. Besides, the “Half-life (iv)” value in series [5] (intra venous, Sprague-Dawley rats, radiolabelled compound in plasma) came to 17.3 h. The “Half-life (sc)” value in series [5] (subcutaneous, Sprague-Dawley rats, radiolabelled compound in plasma) is listed as 21.3 h.
Turning to `CCCCCCCCCCCCCCCCCC(=O)NCCCO[C@@H]1O[C@H](COS(=O)(=O)[O-])[C@@H](O[C@H]2O[C@H](COS(=O)(=O)[O-])[C@@H](O[C@H]3O[C@H](COS(=O)(=O)[O-])[C@@H](OS(=O)(=O)[O-])[C@H](OS(=O)(=O)[O-])[C@H]3OS(=O)(=O)[O-])[C@H](OS(=O)(=O)[O-])[C@H]2OS(=O)(=O)[O-])[C@H](OS(=O)(=O)[O-])[C@H]1OS(=O)(=O)[O-].[Na+].[Na+].[Na+].[Na+].[Na+].[Na+].[Na+].[Na+].[Na+].[Na+]` [Compound 123, 3-Stearamidopropyl 2,3,4,6-tetra-O-sulfo-α-D-glucopyranosyl-(1→4)-2,3,6-tri-O-sulfo-α-D-glucopyranosyl-(1→4)-2,3,6-tri-O-sulfo-β-D-glucopyranoside, decasodium salt], the figures for the Kd in series [1], in series [6] and in [2] were 380 ± 110 nM, 32.2 ± 2.3 nM and 530 ± 50 nM, respectively. For the same compound, the inhibition at 10 µM in series [7] amounted to 33%; in series [8] it was 23%. This compound came in with an APTT in [3] of 51.1 s. This compound showed a Heptest in [4] of 24.9 s. Also, the inhibition constant Ki in series [9] was determined as 11.3 ± 0.4 nM.
On to PI-88 [reference compound], for which the “Half-life (iv)” value in series [5] (rat, in vivo, iv) turned out to be 1.1 h. The “Half-life (sc)” value in series [5] (rat, in vivo, sc) was 1.2 h.

The values above are taken from patent US20150065440A1 (Progen Pharmaceuticals Limited, priority 2007, published 2015).
